Experiments:
TbPTR1 = biological target: T1, TbPTR1 (Trypanosoma brucei brucei, UniProt O76290); test: TbPTR1 activity assay; assay type: biochemical; conditions: for Hill slope: averaged over at least two independent measurements; for ligand efficiency: from Ki^app
T1 sequence (O76290 1-268): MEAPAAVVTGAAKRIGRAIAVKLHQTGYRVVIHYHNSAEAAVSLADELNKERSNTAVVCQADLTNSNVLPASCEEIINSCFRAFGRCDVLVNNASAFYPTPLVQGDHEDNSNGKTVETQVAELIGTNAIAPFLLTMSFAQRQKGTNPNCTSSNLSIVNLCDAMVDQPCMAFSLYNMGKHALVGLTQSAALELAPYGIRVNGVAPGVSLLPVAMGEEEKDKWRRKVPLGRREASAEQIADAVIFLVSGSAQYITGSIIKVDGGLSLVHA

LmPTR1 = conditions: cited from earlier work

Structure (SMILES)	Hill slope (TbPTR1)	ligand efficiency (TbPTR1) [kcal mol^−1/heavy atom]	other results
CCCOc1cccc2nc(N)n(Cc3ccc(Cl)c(Cl)c3)c12 [Compound 11, 7-(n-Propyloxy)-1-(3,4-dichlorobenzyl)-1H-benzo[d]imidazol-2-amine]	–	–	increase in potency (TbPTR1; compared to the 7-chloro derivative 10): 10 fold
Nc1nc2cccc(-c3ccccc3)c2n1Cc1ccc(Cl)c(Cl)c1 [Compound 12, 7-Phenyl-1-(3,4-dichlorobenzyl)-1H-benzo[d]imidazol-2-amine]	0.7	–	–
Nc1nc2cccc(Cl)c2n1Cc1ccc(Cl)c(Cl)c1 [Compound 10, 7-Chloro-1-(3,4-dichlorobenzyl)-1H-benzo[d]imidazol-2-amine]	1.0	–	–
Nc1nc2ccc(Cl)cc2[nH]1 [Compound 4, 2-Amino-6-chloro-benzimidazole]	0.9	0.62	–
COC(=O)c1ccc2nc(N)sc2c1 [Compound 2]	0.6	0.46	–
Cc1cnc2nc(N)nc(N)c2n1 [6-methylpteridine-2,4-diamine]	–	–	inhibition constants (LmPTR1): low micromolar range
Cc1cccc(-c2ccc3nc(N)[nH]c3c2)c1 [Compound 6]	1.1	–	–
Nc1nc2ccccc2n1Cc1ccc(Cl)c(Cl)c1 [Compound 9, 1-(3,4-dichloro-benzyl)-2-amino-benzimidazole]	0.7	–	increase in affinity (TbPTR1; compared to the virtual screening hit (4)): more than 20 fold
Nc1nc2ccccc2[nH]1 [Compound 5, 2-amino-benzimidazole]	0.9	–	drop in affinity (TbPTR1; compared to 4): more than 20 fold
Nc1nc2ccc(C(=O)N3CCCCC3)cc2s1 [Compound 3]	0.6	0.29	–

Reference: PMC2966039 (Journal of Medicinal Chemistry, 2009)
